# Patent publication US20100267561A1, “HERBICIDAL PYRIDAZINONE DERIVATIVES” (priority 2007, published 2010)
# Tests used:
# Assay type in all cases: in vivo
# [1] = system: rice (Oryza sativa); assay: Test B flooded paddy test plant response
# Summary of the method: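 Rice, umbrella sedge, ducksalad and barnyardgrass at 2-leaf stage; pots flooded to 3 cm, compounds applied into paddy water, depth held throughout. Greenhouse 13 to 15 days, then visual rating vs untreated controls on 0–100 scale (0 no effect, 100 complete control); dash means no test result.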
# [2] = system: goosegrass (Eleusine indica); assay: Test B pre-/postemergence plant response; conditions: for Goosegrass plant response rating: 8 g ai/ha
# Summary of the method: (§1)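 Preemergence and postemergence (plants 2-18 cm, 1- to 4-leaf stage) applications used test chemicals in a non-phytotoxic solvent with surfactant. Plants were held in a greenhouse 13 to 15 days, then rated visually against controls on a 0-100 scale (0 no effect, 100 complete control).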
# [3] = system: giant foxtail (Setaria faberii); assay: Test B pre-/postemergence plant response; conditions: for Foxtail, Giant plant response rating: 8 g ai/ha
# Summary of the method: as §1
# [4] = system: kochia (Kochia scoparia); assay: Test B pre-/postemergence plant response; conditions: for Kochia plant response rating: 8 g ai/ha
# Summary of the method: as §1
# [5] = system: soybean (Glycine max); assay: Test B pre-/postemergence plant response
# Summary of the method: as §1
# [6] = system: Italian ryegrass (Lolium multiflorum); assay: Test B pre-/postemergence plant response; conditions: for Ryegrass, Italian plant response rating: 8 g ai/ha
# Summary of the method: as §1
# [7] = system: bermudagrass (Cynodon dactylon); assay: Test B pre-/postemergence plant response; conditions: for Bermudagrass plant response rating: 8 g ai/ha
# Summary of the method: as §1
# [8] = system: johnsongrass (Sorghum halepense); assay: Test B pre-/postemergence plant response; conditions: for Johnsongrass plant response rating: 8 g ai/ha
# Summary of the method: as §1
# [9] = system: velvetleaf (Abutilon theophrasti); assay: Test B pre-/postemergence plant response; conditions: for Velvetleaf plant response rating: 8 g ai/ha
# Summary of the method: as §1
# [10] = system: pigweed (Amaranthus retroflexus); assay: Test B pre-/postemergence plant response; conditions: for Pigweed plant response rating: 8 g ai/ha
# Summary of the method: as §1
# [11] = system: large crabgrass (Digitaria sanguinalis); assay: Test B pre-/postemergence plant response; conditions: for Crabgrass, Large plant response rating: 8 g ai/ha
# Summary of the method: as §1
# [12] = system: morningglory (Ipomoea coccinea); assay: Test B pre-/postemergence plant response; conditions: for Morningglory plant response rating: 8 g ai/ha
# Summary of the method: as §1
# [13] = system: catchweed bedstraw (Galium aparine); assay: Test B pre-/postemergence plant response; conditions: Preemergence
# Summary of the method: as §1
# [14] = system: lambsquarters (Chenopodium album); assay: Test B pre-/postemergence plant response; conditions: for Lambsquarters plant response rating: 8 g ai/ha
# Summary of the method: as §1
# [15] = Postemergence, 16 g ai/ha, scale 0 to 100
# [16] = Postemergence, 31 g ai/ha, scale 0 to 100
# [17] = Postemergence, 62 g ai/ha, scale 0 to 100, 0 no effect, 100 complete control
# [18] = Preemergence, 16 g ai/ha, scale 0 to 100 (0 no effect, 100 complete control)
# [19] = Preemergence, 31 g ai/ha, 0 to 100 scale, 0 no effect, 100 complete control
# [20] = Preemergence, 62 g ai/ha, scale 0 to 100
# [21] = Preemergence, 31 g ai/ha, scale 0 to 100 (0 no effect, 100 complete control)
smiles,measurement,setting,value
Cn1ncc(O)c(-n2nc(-c3ccc(Cl)cc3)cc2C2CC2)c1=O [Compound 45],"Plant response rating, Rice","[1]; Flood (flooded paddy test), 62 g ai/ha, scale 0 to 100, 0 no effect, 100 complete control",0
same,"Plant response rating, Rice","[1]; Flood (flooded paddy test), 125 g ai/ha, scale 0 to 100, 0 no effect, 100 complete control",45
same,"Plant response rating, Rice","[1]; Flood (flooded paddy test), 250 g ai/ha, scale 0 to 100, 0 no effect, 100 complete control",45
same,"Plant response rating, Rice","[1]; Flood, 31 g ai/ha, scale 0 to 100",0
same,Goosegrass plant response rating,"[2]; postemergence, 0-100 scale",65
same,"Plant response rating, Goosegrass",[2]; [15],70
same,"Plant response rating, Goosegrass",[2]; [16],80
same,"Plant response rating, Goosegrass",[2]; [17],95
same,"Plant response rating, Goosegrass",[2]; [18],0
same,"Plant response rating, Goosegrass",[2]; [19],0
same,"Plant response rating, Goosegrass",[2]; [20],0
same,Goosegrass plant response rating,"[2]; Preemergence, scale 0 to 100",0
same,"Foxtail, Giant plant response rating","[3]; postemergence, 0-100 scale",90
same,"Plant response rating, Foxtail, Giant",[3]; [15],98
same,"Plant response rating, Foxtail, Giant",[3]; [16],100
same,"Plant response rating, Foxtail, Giant",[3]; [17],100
same,"Plant response rating, Foxtail, Giant",[3]; [18],0
same,"Plant response rating, Foxtail, Giant",[3]; [19],35
same,"Plant response rating, Foxtail, Giant",[3]; [20],45
same,"Foxtail, Giant plant response rating","[3]; Preemergence, scale 0 to 100",0
same,Kochia plant response rating,"[4]; postemergence, 0-100 scale",0
same,"Plant response rating, Kochia",[4]; [15],0
same,"Plant response rating, Kochia",[4]; [16],0
same,"Plant response rating, Kochia",[4]; [17],0
same,"Plant response rating, Kochia",[4]; [18],0
same,"Plant response rating, Kochia",[4]; [19],0
same,"Plant response rating, Kochia",[4]; [20],0
same,Kochia plant response rating,"[4]; Preemergence, scale 0 to 100",0
same,Soybean plant response rating,"[5]; 8 g ai/ha, postemergence, 0-100 scale",0
same,"Plant response rating, Soybean",[5]; [15],0
same,"Plant response rating, Soybean",[5]; [16],0
same,"Plant response rating, Soybean",[5]; [17],0
same,"Plant response rating, Soybean",[5]; [18],0
same,"Plant response rating, Soybean",[5]; [20],65
same,"Ryegrass, Italian plant response rating","[6]; postemergence, 0-100 scale",70
same,"Plant response rating, Ryegrass, Italian",[6]; [15],90
same,"Plant response rating, Ryegrass, Italian",[6]; [16],100
same,"Plant response rating, Ryegrass, Italian",[6]; [17],100
same,"Plant response rating, Ryegrass, Italian",[6]; [18],90
same,"Plant response rating, Ryegrass, Italian",[6]; [21],100
same,"Plant response rating, Ryegrass, Italian",[6]; [20],100
same,"Ryegrass, Italian plant response rating","[6]; Preemergence, scale 0 to 100",0
same,Bermudagrass plant response rating,"[7]; postemergence, 0-100 scale",60
same,"Plant response rating, Bermudagrass",[7]; [15],95
same,"Plant response rating, Bermudagrass",[7]; [16],98
same,"Plant response rating, Bermudagrass",[7]; [17],98
same,Bermudagrass plant response rating,"[7]; Preemergence, scale 0 to 100 (0 no effect, 100 complete control)",0
same,"Plant response rating, Bermudagrass",[7]; [18],0
same,"Plant response rating, Bermudagrass",[7]; [19],0
same,"Plant response rating, Bermudagrass",[7]; [20],0
same,Johnsongrass plant response rating,"[8]; postemergence, 0-100 scale",60
same,"Plant response rating, Johnsongrass",[8]; [15],65
same,"Plant response rating, Johnsongrass",[8]; [16],65
same,"Plant response rating, Johnsongrass",[8]; [17],70
same,"Plant response rating, Johnsongrass",[8]; [18],20
same,"Plant response rating, Johnsongrass",[8]; [19],75
same,"Plant response rating, Johnsongrass",[8]; [20],98
same,Johnsongrass plant response rating,"[8]; Preemergence, scale 0 to 100",15
same,Velvetleaf plant response rating,"[9]; postemergence, 0-100 scale",0
same,"Plant response rating, Velvetleaf",[9]; [15],0
same,"Plant response rating, Velvetleaf",[9]; [16],0
same,"Plant response rating, Velvetleaf",[9]; [17],0
same,"Plant response rating, Velvetleaf",[9]; [18],0
same,"Plant response rating, Velvetleaf",[9]; [21],0
same,"Plant response rating, Velvetleaf","[9]; Preemergence, 62 g ai/ha, 0 to 100 scale, 0 no effect, 100 complete control",0
same,Velvetleaf plant response rating,"[9]; Preemergence, scale 0 to 100",0
same,Pigweed plant response rating,"[10]; postemergence, 0-100 scale",0
same,"Plant response rating, Pigweed",[10]; [15],0
same,"Plant response rating, Pigweed",[10]; [16],0
same,"Plant response rating, Pigweed",[10]; [17],0
same,"Plant response rating, Pigweed",[10]; [18],0
same,"Plant response rating, Pigweed",[10]; [21],0
same,"Plant response rating, Pigweed",[10]; [20],0
same,Pigweed plant response rating,"[10]; Preemergence, scale 0 to 100",0
same,"Crabgrass, Large plant response rating","[11]; postemergence, 0-100 scale",65
same,"Plant response rating, Crabgrass, Large",[11]; [15],80
same,"Plant response rating, Crabgrass, Large",[11]; [16],100
same,"Plant response rating, Crabgrass, Large",[11]; [17],100
same,"Plant response rating, Crabgrass, Large",[11]; [18],0
same,"Plant response rating, Crabgrass, Large",[11]; [19],0
same,"Plant response rating, Crabgrass, Large",[11]; [20],0
same,"Crabgrass, Large plant response rating","[11]; Preemergence, scale 0 to 100",0
same,Morningglory plant response rating,"[12]; postemergence, 0-100 scale",0
same,"Plant response rating, Morningglory",[12]; [15],0
same,"Plant response rating, Morningglory",[12]; [16],0
same,"Plant response rating, Morningglory",[12]; [17],0
same,"Plant response rating, Morningglory",[12]; [18],0
same,"Plant response rating, Morningglory",[12]; [21],0
same,"Plant response rating, Morningglory",[12]; [20],0
same,Morningglory plant response rating,"[12]; Preemergence, scale 0 to 100",0
same,"Plant response rating, Galium","[13]; 16 g ai/ha, scale 0 to 100 (0 no effect, 100 complete control)",0
same,"Plant response rating, Galium","[13]; 31 g ai/ha, 0 to 100 scale, 0 no effect, 100 complete control",0
same,"Plant response rating, Galium","[13]; 62 g ai/ha, scale 0 to 100",0
same,Galium plant response rating,"[13]; 8 g ai/ha, scale 0 to 100",0
same,Lambsquarters plant response rating,"[14]; postemergence, 0-100 scale",0
same,"Plant response rating, Lambsquarters",[14]; [15],0
same,"Plant response rating, Lambsquarters",[14]; [16],0
same,"Plant response rating, Lambsquarters",[14]; [17],0
same,"Plant response rating, Lambsquarters",[14]; [18],0
same,"Plant response rating, Lambsquarters",[14]; [19],0
same,"Plant response rating, Lambsquarters",[14]; [20],0
same,Lambsquarters plant response rating,"[14]; Preemergence, scale 0 to 100",0
